The values below come from US10183936B2, “Hepatitis B core protein allosteric modulators” (priority 2014, dated 2019).

Series [1] relates to HBV viral production in AD38 cells. The series is described as follows: Viral load production in AD38 cells by quantitative PCR of the HBV core sequence in supernatant. It counts as cell-based. To be noted: Hepatitis B virus, 144 h; 10 μM compound, 6 days at 37° C., viral load in supernatant compared against DMSO control wells; read-out: AD38 Viral Load (CpAM/DMSO %) at 10 μM. An outline of the steps:
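Read-out is TaqMan qPCR of the HBV core region in supernatant, quantitated against standards and referenced to DMSO controls (≥3 per plate). Cells: AD38 at 50,000/well, exposed to compound (added as 10× stock in 10% DMSO) for 6 days at 37° C.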

For the next series, the system named is AD38 cells. Put plainly: Viability of AD38 cells (Promega CellTiter-Glo) at the end of compound treatment. It counts as cell-based. To be noted: 10 μM compound, 6 days, luminescence normalized against DMSO control wells (controls being 100%). An outline of the steps:
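Luminescent CellTiter-Glo read-out, taken after supernatant was swapped for tetracycline-free 2% FBS medium with 1% DMSO, gave percent viability relative to DMSO controls set at 100%. Cells were plated at 50,000/well and exposed to compound, added as a 10× stock in 10% DMSO, for 6 days at 37° C.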

On to `O=C(NCCc1ccc(-c2cncnc2)cc1)c1ccc2c(c1)NC(=O)c1cc(F)ccc1S2` [Compound 1320], for which the activity at 10 µM in series [1] was 43%. The “AD38 Viability Normalized Result (CPAM/DMSO %) at 10 μM” value in the series on AD38 cells worked out at 93%.
For `CN(C)S(=O)(=O)c1ccc(CCNC(=O)c2cc3c(cc2F)Sc2ccccc2C(=O)N3)cc1` [Compound 1507], in that order: 11% and 96%.
For the compound `CN(C)S(=O)(=O)c1ccc(CCNC(=O)c2ccc3c(c2)NC(=O)c2ccccc2[S+]3[O-])cc1` (stereo not drawn) [Compound 1486], the activity at 10 µM in series [1] turned out to be 53%. The “AD38 Viability Normalized Result (CPAM/DMSO %) at 10 μM” value with AD38 cells was found to be 94%.
